Laboratory results reported in ChEMBL document CHEMBL1201862, “PubChem BioAssay data set” (2004).
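Interpolation was linear, between the two tested concentrations surrounding the appropriate level; five concentrations were tested over 48 hours in 96-well plates. GI50 = concentration required for 50% inhibition of growth.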 Calls of active or inactive are those of the source. Rule as the data show it: active = GI50 up to about 1.1 µM and inactive = higher.

Tests used:
Assay in all cases: NCI tumour cell line growth inhibition, 48 h
TK-10 = test system: TK-10
LOX IMVI = test system: LOX IMVI
OVCAR-8 = test system: OVCAR-8
MOLT-4 = test system: MOLT-4
DU-145 = test system: DU-145
HT-29 = test system: HT-29
T47D = test system: T47D
UACC-62 = test system: UACC-62
BT-549 = test system: BT-549
SF-295 = test system: SF-295
SK-MEL-28 = test system: SK-MEL-28
SW-620 = test system: SW-620
NCI-H460 = test system: NCI-H460
HCC 2998 = test system: HCC 2998
786-0 = test system: 786-0
HCT-15 = test system: HCT-15
A549 = test system: A549
NCI-H23 = test system: NCI-H23
CAKI-1 = test system: CAKI-1
SNB-75 = test system: SNB-75
NCI-H226 = test system: NCI-H226
SF-539 = test system: SF-539
OVCAR-5 = test system: OVCAR-5
HL-60 = test system: HL-60
A498 = test system: A498
SK-MEL-2 = test system: SK-MEL-2
MDA-N = test system: MDA-N
KM12 = test system: KM12
MDA-MB-231 = test system: MDA-MB-231
RPMI-8226 = test system: RPMI-8226
HCT-116 = test system: HCT-116
UO-31 = test system: UO-31
SNB-19 = test system: SNB-19
K562 = test system: K562
NCI-H522 = test system: NCI-H522
Hs-578T = test system: Hs-578T
SN12C = test system: SN12C
EKVX = test system: EKVX
UACC-257 = test system: UACC-257
COLO 205 = test system: COLO 205
SF-268 = test system: SF-268
IGROV-1 = test system: IGROV-1
CCRF-CEM = test system: CCRF-CEM
MDA-MB-435 = test system: MDA-MB-435
HOP-92 = test system: HOP-92
SK-OV-3 = test system: SK-OV-3
HOP-62 = test system: HOP-62
RXF 393 = test system: RXF 393
M14 = test system: M14
PC-3 = test system: PC-3
OVCAR-4 = test system: OVCAR-4
U-251 = test system: U-251
NCI/ADR-RES = test system: NCI/ADR-RES
Malme-3M = test system: Malme-3M
MCF7 = test system: MCF7
SK-MEL-5 = test system: SK-MEL-5
SR = test system: SR
OVCAR-3 = test system: OVCAR-3
ACHN = test system: ACHN

SMILES: COc1cc(C2SCC(=O)N2c2ccc(Cl)c(Cl)c2)cc(OC)c1OC (stereo unspecified)
- GI50 (TK-10): > 100 µM (inactive)
- GI50 (LOX IMVI): 17.7 µM (inactive)
- GI50 (OVCAR-8): 60.5 µM (inactive)
- GI50 (MOLT-4): 14.7 µM (inactive)
- GI50 (DU-145): > 38.5 µM (inactive)
- GI50 (HT-29): 23.1 µM (inactive)
- GI50 (T47D): 10.6 µM (inactive)
- GI50 (UACC-62): 0.838 µM (active)
- GI50 (BT-549): 44.7 µM (inactive)
- GI50 (SF-295): 29.8 µM (inactive)
- GI50 (SK-MEL-28): > 50.9 µM (inactive)
- GI50 (SW-620): 48 µM (inactive)
- GI50 (NCI-H460): 30.2 µM (inactive)
- GI50 (HCC 2998): > 56.9 µM (inactive)
- GI50 (786-0): > 55.6 µM (inactive)
- GI50 (HCT-15): 20.6 µM
- GI50 (A549): > 78.7 µM (inactive)
- GI50 (NCI-H23): 69.5 µM (inactive)
- GI50 (CAKI-1): 27.5 µM (inactive)
- GI50 (SNB-75): 76.6 µM (inactive)
- GI50 (NCI-H226): > 37 µM (inactive)
- GI50 (SF-539): 70.5 µM (inactive)
- GI50 (OVCAR-5): 7.5 µM (inactive)
- GI50 (HL-60): 19.5 µM (inactive)
- GI50 (A498): > 100 µM (inactive)
- GI50 (SK-MEL-2): 30.2 µM (inactive)
- GI50 (MDA-N): 13 µM (inactive)
- GI50 (KM12): 12.7 µM (inactive)
- GI50 (MDA-MB-231): > 64.4 µM (inactive)
- GI50 (RPMI-8226): 31.8 µM (inactive)
- GI50 (HCT-116): 25.5 µM (inactive)
- GI50 (UO-31): 18.9 µM (inactive)
- GI50 (SNB-19): > 100 µM (inactive)
- GI50 (K562): 1.28 µM (inactive)
- GI50 (NCI-H522): 22.1 µM (inactive)
- GI50 (Hs-578T): > 100 µM (inactive)
- GI50 (SN12C): > 54.5 µM (inactive)
- GI50 (EKVX): 25.5 µM (inactive)
- GI50 (UACC-257): 32.6 µM (inactive)
- GI50 (COLO 205): 34.3 µM (inactive)
- GI50 (SF-268): > 100 µM (inactive)
- GI50 (IGROV-1): > 82.6 µM (inactive)
- GI50 (CCRF-CEM): 14.8 µM (inactive)
- GI50 (MDA-MB-435): 11.1 µM (inactive)
- GI50 (HOP-92): 80.9 µM (inactive)
- GI50 (SK-OV-3): 99.3 µM (inactive)
- GI50 (HOP-62): 24.2 µM (inactive)
- GI50 (RXF 393): 18.5 µM (inactive)
- GI50 (M14): 11.2 µM (inactive)
- GI50 (PC-3): 54.2 µM (inactive)
- GI50 (OVCAR-4): 27.4 µM (inactive)
- GI50 (U-251): 47.3 µM (inactive)
- GI50 (NCI/ADR-RES): 37.2 µM (inactive)
- GI50 (Malme-3M): > 100 µM (inactive)
- GI50 (MCF7): 38.2 µM (inactive)
- GI50 (SK-MEL-5): 21.7 µM (inactive)
- GI50 (SR): 9.75 µM (inactive)
- GI50 (OVCAR-3): 34.1 µM (inactive)

SMILES: Cc1ccc([N+](=O)[O-])cc1S(=O)(=O)Nc1ccc(C(=O)/C=C/c2cccs2)cc1
- GI50 (TK-10): 56.2 µM (inactive)
- GI50 (LOX IMVI): 20.7 µM (inactive)
- GI50 (OVCAR-8): 37.4 µM (inactive)
- GI50 (ACHN): 29.4 µM (inactive)
- GI50 (MOLT-4): 22.2 µM (inactive)
- GI50 (DU-145): 23.3 µM (inactive)
- GI50 (HT-29): 18.9 µM (inactive)
- GI50 (T47D): 25.6 µM (inactive)
- GI50 (UACC-62): 16.3 µM (inactive)
- GI50 (BT-549): 18.7 µM (inactive)
- GI50 (SF-295): 32.7 µM (inactive)
- GI50 (SK-MEL-28): 23.1 µM (inactive)
- GI50 (SW-620): 22.4 µM (inactive)
- GI50 (NCI-H460): 51.5 µM (inactive)
- GI50 (HCC 2998): 18.5 µM (inactive)
- GI50 (786-0): 18.4 µM (inactive)
- GI50 (HCT-15): 23.4 µM
- GI50 (A549): 91.6 µM (inactive)
- GI50 (NCI-H23): 20.2 µM (inactive)
- GI50 (CAKI-1): 16.2 µM (inactive)
- GI50 (SNB-75): 19.3 µM (inactive)
- GI50 (NCI-H226): 22.5 µM (inactive)
- GI50 (SF-539): 27.2 µM (inactive)
- GI50 (OVCAR-5): 31.5 µM (inactive)
- GI50 (HL-60): 28.3 µM (inactive)
- GI50 (A498): 15.3 µM (inactive)
- GI50 (SK-MEL-2): 20.6 µM (inactive)
- GI50 (MDA-N): 25.2 µM (inactive)
- GI50 (KM12): 16.6 µM (inactive)
- GI50 (MDA-MB-231): 16.3 µM (inactive)
- GI50 (RPMI-8226): 20.7 µM (inactive)
- GI50 (HCT-116): 18.2 µM (inactive)
- GI50 (UO-31): 20 µM (inactive)
- GI50 (SNB-19): 21.5 µM (inactive)
- GI50 (K562): 29 µM (inactive)
- GI50 (NCI-H522): 19.2 µM (inactive)
- GI50 (Hs-578T): 36.3 µM (inactive)
- GI50 (SN12C): 24.2 µM (inactive)
- GI50 (EKVX): 20.1 µM (inactive)
- GI50 (UACC-257): 20.5 µM (inactive)
- GI50 (COLO 205): 24.1 µM (inactive)
- GI50 (SF-268): 32 µM (inactive)
- GI50 (IGROV-1): 36.6 µM (inactive)
- GI50 (CCRF-CEM): 0.271 µM (active)
- GI50 (MDA-MB-435): 17.6 µM (inactive)
- GI50 (HOP-92): 27.9 µM (inactive)
- GI50 (SK-OV-3): 44.1 µM (inactive)
- GI50 (HOP-62): 22.1 µM (inactive)
- GI50 (RXF 393): 17.7 µM (inactive)
- GI50 (M14): 20.1 µM (inactive)
- GI50 (PC-3): 21.1 µM (inactive)
- GI50 (OVCAR-4): 22.5 µM (inactive)
- GI50 (NCI/ADR-RES): 24.9 µM (inactive)
- GI50 (Malme-3M): 27.4 µM (inactive)
- GI50 (MCF7): 15.7 µM (inactive)
- GI50 (SK-MEL-5): 16.9 µM (inactive)
- GI50 (SR): 18.9 µM (inactive)
- GI50 (OVCAR-3): 20.8 µM (inactive)
